Data: patent US20220096539A1, “SALT NANOPARTICLES AND COMPOSITIONS AND METHODS OF USE THEREOF” (priority 2019, published 2022)

Tests used:
PC-3 cells [1] = assay type: cell-based, human; conditions: MTT 24 h; NaCl salt at 160 μg/mL; free phospholipid
Description: Cells were seeded into 96-well plates at the density of 1×10^4 cells per well and incubated overnight. […] MTT assays (3-(4,5-dimethylthiazol-2-yl)-2,5-diphenyl tetrazolium bromide, Sigma) were performed following the manufacture's protocol. The absorbance at 570 nm was measured by a microplate reader (Synergy Mx, BioTeK). All measurements were performed in sextuplicate.

SCC VII cells = experiment: CRT presentation, ATP and HMGB-1 release; assay type: cell-based, murine; conditions: control
Description: (§1) CRT expression on cell surface in flow cytometry assessment. T24, UMUC2, UPPL-1541, BBN963, B16F10, and SCC VII cells are seeded into the 6 wells plate at 1×10^6 per well. After overnight incubation, the cells were treated with NaCl particles ([…]) (160 μg/mL) for 2 h. PBS treated cells were used as a control. All the cells were collected by cell […], and incubated with an Alexa Fluor® 647-conjugated anti-CRT antibody (ab196159, 1/500. Abcam) for 30 min at 4° C. The cells were incubated in 500 μL PBS containing 50 μg/mL propidium iodide before washing and assessment on a flow cytometer. The data were expressed in histogram compared to the PBS treated control cells. Cells were seeded into 96-well plates at the density of 1×10^4 cells per well and incubated overnight. Then the cells were treated with […] dispersed in PBS at a dose range of 13.2-320 μg/mL for 1, 2, 4 h and 24 h. Cell supernatant was collected after 1-4 h incubation and tested in ATP 1step Luminescence Assay System, 100 mL ATP Assay Kit (PerkinElmer, US) following the manufacture's protocol. […] The luminescence was measured by a microplate reader (Synergy Mx, BioTeK). All measurements were performed in sextuplicate. Cell supernatant was collected after 24 h incubation and tested in an ELISA kit (IBL International GmbH), according to the manufacturer's instructions.

B16F10 cells = experiment: CRT presentation, ATP and HMGB-1 release; assay type: cell-based, murine; conditions: control
Description: as §1

PC-3 cells [2] = experiment: Necrosis inhibition study (LDH release); assay type: cell-based, human; conditions: PC-3 cells pre-incubated with inhibitor 1 h, then PSCNPs
Description: PC-3 cells were plated overnight at a density of 1×10^4 cells per well in a 96-well plate. These cells were pre-treated with necrosis inhibitor glycine (5 mM) or capsase-1 inhibitor Ac-YVAD-cmk (30 μg/mL) for 1 h, and then incubated with […] (160 or 320 μg/mL) for 6 h. Cell without glycine or Ac-YVAD-cmk treatment were studied as controls. Supernatants were collected and the LDH contents were analyzed by LDH Assay Kit-WST (CT01-05, Dojindo, Japan). The results were normalized to PBS treated control cells.

[3] = assay type: physicochemical; conditions: pH 5.5
Description: were dispersed in 100 μl ammonium acetate buffers (pH=5.5 or pH=7) and added into a Slide-A-LyzerTM MINI Dialysis Device (MWCO=2K, Cat #69550, Thermofisher, US). Place the unite into a 5 mL Eppendorf tube containing 4.5 mL ammonium acetate buffer. Keep the tube on the shaker (20 rpm) at room temperature. […] All measurements were performed following the manufacture's protocol and repeated in sextuplicate.

PC-3 tumor xenografts = experiment: In vivo therapy study, PC-3 tumor model; conditions: mouse
Description: Animal studied were performed according to a protocol approved by the Institutional Animal Care and Use Committee (IACUC) of the University of Georgia. The animals were maintained under pathogen-free conditions. PC-3 tumor model was generated by subcutaneously injecting 2×10^6 cells in 50 μL PBS into the right flank of 5-6 week old male athymic nude mice (Charles River). U-87 MG tumor model was generated in female athymic nude mice (Charles River) following the same method as PC-3 model. B16F10 tumor model was generated by subcutaneously injecting 2×10^5 cells in 50 μL PBS into the right flank of 5-6 week old female C57BU6 mice (Charles River). SCC VII tumor model was generated by subcutaneously injecting […] in 50 μL PBS into the right flank of 5-6 week old female C3H/HeN mice (Charles River). UPPL-1541 tumor model was generated by subcutaneously injecting 1×10^6 cells in 50 μL PBS into the right flank of 5-6 week old female C57BL6 mice (Charles River).
For therapy studies, PC-3 tumor bearing mice were randomly divided into 2 groups (n=5 for each group). When the average tumor volume was about 100 mm^3, PSCNPs (9 mg/mL, 50 μL) were intratumorally injected on day 0, 2 and 4. For control, saline at the same volume was injected. […] The tumor was measured in two dimensions with a caliper, and the tumor volume was estimated as (length)×(width) 2/2. […]

Compound | toxicity to PC-3 cells (PC-3 cells [1]) | reduction of PSCNP-induced LDH release (PC-3 cells [2]) [%] | other results
1,2-distearoyl-sn-glycero-3-phosphoethanolamine-N-[amino(polyethylene glycol)-2000] (ammonium salt) [free phospholipid] | no toxicity | – | –
[Cl-].[Na+] [NaCl salt, NaCl] | no toxicity | – | release of ICD biomarkers (ATP and HMGB-1) (SCC VII cells): negligible impact; release of ICD biomarkers (ATP and HMGB-1) (B16F10 cells): negligible impact
NCC(=O)O [glycine] | – | 72.9 | –
Ac-YVAD-cmk | – | 60.9 | –
Phospholipid-coated Sodium Chloride Nanoparticles [PSCNPs] | – | – | effect of lowering pH to 5.5 on nanoparticle degradation [3]: did not accelerate nanoparticle degradation; toxicity in major organs (PC-3 tumor xenografts): no sign of toxicity
